For assay [1], the system named is MCR-1-positive E. coli strains. Briefly: Checkerboard assay / MIC, MCR-1-positive colistin-resistant E. coli. Type of assay: cell-based. Particulars: for MIC against MCR-1-positive E. coli: alone. From the text: Repetitive description of like elements employed in other embodiments described herein is omitted for sake of brevity.
Plasmid-mediated colistin-resistance has been reported in Gram-negative bacteria, which resulted from a MCR-1 enzyme that catalyzes the transfer of phosphoethanolamine to lipid A; thereby rendering the membrane more electropositive.

Assay [2] deals with therapeutic-susceptible MCF7 cancer cells. The experiment in a line: Cytotoxicity against therapeutic-susceptible MCF7. Particulars: Homo sapiens. The format is cell-based. The method, then: (§1) Further, Table 2 regards anticancer activity against therapeutic-susceptible MCF7 cancer cells with an incubation time of 48 hours. For the combination therapies, the cancer cells were treated with the antimicrobial polymer for 4 hours followed by treatment with doxorubicin for 44 hours. Also, Table 3 regards anticancer activity against therapeutic-resistant MCF7 cancer cells with an incubation time of 48 hours. For the combination therapies, the cancer cells were treated with the antimicrobial polymer for 4 hours followed by treatment with doxorubicin for 44 hours.

The subject of assay [3] is therapeutic-resistant MCF7/ADR cell line. The experiment in a line: Cytotoxicity against therapeutic-resistant MCF7/ADR. Type of assay: cell-based. Particulars: Homo sapiens. The protocol: as §1
The next assay deals with BT474 cell line. Briefly: cells. Particulars: Homo sapiens, BT-474, read-out: absolute IC50 in treating BT474. From the text:
Cytotoxicity graph 2100 regards treating BT474 solely with doxorubicin.

Assay [4] relates to therapeutic-resistant SK-OV-3-TR cell line. Briefly: Cytotoxicity against SK-OV-3-TR. Particulars: SKOV3TR; FIG. 25; read-out: absolute IC50 in treating SK-OV-3-TR. Type of assay: cell-based.
Description: Cytotoxicity graph 2500 regards treating SK-OV-3-TR solely with paclitaxel. […] Cytotoxicity graph 2502 regards treating SK-OV-3-TR solely with the example quaternary ammonium functionalized antimicrobial polymer 1402 (e.g., wherein “n” equals 21). […] Cytotoxicity graph 2504 regards treating SK-OV-3-TR solely with the example guanidinium functionalized antimicrobial polymer 1404 (e.g., wherein “m” equals 20). […] Cytotoxicity graph 2506 regards treating SK-OV-3-TR with a combination therapy of paclitaxel with 0.5 IC50 of the example quaternary ammonium functionalized antimicrobial polymer 1402 (e.g., wherein “n” equals 21). […] Cytotoxicity graph 2508 regards treating SK-OV-3-TR with a combination therapy of paclitaxel with 0.5 IC50 of example guanidinium functionalized antimicrobial polymer 1404 (e.g., wherein “m” equals 20).
The mark [5] stands for this setting: MCF7, FIG. 22 and FIG. 24, read-out: absolute IC50 in treating MCF7.
[6] abbreviates: NCI/ADR-RES, FIG. 23 and FIG. 24, read-out: absolute IC50 in treating MCF7/ADR.

Converted amounts (≈) assume the structure as drawn. Read-outs that look alike come from different tables or passages of the source.

Consider colistimethate sodium, for which the “MIC against MCR-1-positive E. coli” value in assay [1] (first of two MCR-1-positive E. coli strains) came out at 15.6 µg/mL; in assay [1] (second of two MCR-1-positive E. coli strains), 31.3 µg/mL.
With `COc1cccc2c1C(=O)c1c(O)c3c(c(O)c1C2=O)C[C@@](O)(C(=O)CO)C[C@@H]3O[C@H]1C[C@H](N)[C@H](O)[C@H](C)O1` [DOX, doxorubicin], the IC50 in assay [2] (setting [5]) came to 0.15 µg/mL; in assay [2] (MCF7, incubation 48 hours, combinations: polymer for 4 hours followed by doxorubicin for 44 hours, read-out: Absolute IC50), 0.054 µg/mL; in assay [3] (setting [6]), 139 µg/mL; in assay [3] (therapeutic-resistant MCF7, incubation 48 hours, combinations: polymer for 4 hours followed by doxorubicin for 44 hours, read-out: Absolute IC50), 375 µg/mL; in the assay with BT474 cell line it was 8.42 µg/mL (≈ 15.5 µM).
colistin: the “colistin MIC against MCR-1 colistin-resistant bacteria” value in assay [1] (with pQuat_20 at ½×MIC) was < 0.49 µg/mL.
As to `CC(=O)O[C@H]1C(=O)[C@@]2(C)[C@H]([C@H](OC(=O)c3ccccc3)[C@]3(O)C[C@H](OC(=O)[C@H](O)[C@@H](NC(=O)c4ccccc4)c4ccccc4)C(C)=C1C3(C)C)[C@]1(OC(C)=O)CO[C@@H]1C[C@@H]2O` [paclitaxel], the IC50 in assay [2] (setting [5]) was 19.7 µg/mL; in assay [3] (setting [6]), 5150 µg/mL; in assay [4], 27.4 µg/mL (≈ 32.1 µM).

These data come from US11331341B2, “Combination therapies that enhance antimicrobial/anticancer activities” (International Business Machines Corporation, priority 2020, dated 2022).
